Experimental data taken from patent US20020026053A1, “Novel 3-(substituted) -2- indolinones compounds and use thereof as inhibitors of protein kinase activity” (priority 1997, published 2002).

Target: T1, EGFR (Homo sapiens, UniProt P00533)
T1 construct: endogenous in cells; host or cells: A431 cells (lysate, captured with SUMO1 anti-EGFR antibody)
Assay: Biochemical EGFR Assay
Parameters: concentration or dose not given beside the values
Conditions: protocol P.167
Summary of the method: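 Readout is ABTS absorbance at 410 nm after anti-phosphotyrosine and HRP-antibody detection of EGFR autophosphorylation. The kinase was immunocaptured from A431 lysate, exposed 30 min to test compound diluted 1:10 in TBS, then phosphorylated for 5 min with ATP/MnCl2 before an EDTA stop.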

T1 sequence (P00533 25-1210): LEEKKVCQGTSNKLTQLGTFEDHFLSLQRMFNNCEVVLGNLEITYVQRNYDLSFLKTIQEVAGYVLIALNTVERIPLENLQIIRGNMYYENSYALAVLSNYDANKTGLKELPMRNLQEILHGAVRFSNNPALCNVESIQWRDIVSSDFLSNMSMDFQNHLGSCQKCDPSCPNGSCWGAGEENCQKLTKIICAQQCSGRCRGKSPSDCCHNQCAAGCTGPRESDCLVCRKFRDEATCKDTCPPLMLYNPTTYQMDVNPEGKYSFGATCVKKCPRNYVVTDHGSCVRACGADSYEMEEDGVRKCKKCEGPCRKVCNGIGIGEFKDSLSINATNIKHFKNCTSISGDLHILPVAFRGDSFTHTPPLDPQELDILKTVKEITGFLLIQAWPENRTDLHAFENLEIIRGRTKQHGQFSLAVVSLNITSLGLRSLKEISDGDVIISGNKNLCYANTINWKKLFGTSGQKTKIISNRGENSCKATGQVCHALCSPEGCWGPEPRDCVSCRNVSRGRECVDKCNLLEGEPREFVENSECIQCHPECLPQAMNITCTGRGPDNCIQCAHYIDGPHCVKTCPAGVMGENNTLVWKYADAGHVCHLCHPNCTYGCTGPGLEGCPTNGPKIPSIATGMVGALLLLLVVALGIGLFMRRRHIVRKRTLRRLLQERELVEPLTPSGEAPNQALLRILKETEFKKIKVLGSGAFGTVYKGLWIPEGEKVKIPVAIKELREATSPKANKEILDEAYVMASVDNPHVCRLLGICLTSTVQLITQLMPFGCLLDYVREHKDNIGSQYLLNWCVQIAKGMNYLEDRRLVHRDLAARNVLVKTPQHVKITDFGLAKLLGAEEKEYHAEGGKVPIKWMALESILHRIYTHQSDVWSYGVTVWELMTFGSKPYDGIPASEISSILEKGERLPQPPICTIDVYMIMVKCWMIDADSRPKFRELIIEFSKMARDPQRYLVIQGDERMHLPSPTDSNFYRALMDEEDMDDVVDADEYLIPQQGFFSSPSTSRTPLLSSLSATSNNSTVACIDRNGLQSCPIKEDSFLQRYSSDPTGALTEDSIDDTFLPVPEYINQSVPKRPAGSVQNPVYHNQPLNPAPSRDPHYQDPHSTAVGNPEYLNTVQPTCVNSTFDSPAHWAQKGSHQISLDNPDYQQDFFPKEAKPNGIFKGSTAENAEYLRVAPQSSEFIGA

Cc1c(Br)cc(Br)c2c1C(=Cc1ccoc1)C(=O)N2 [10739/H10] was tested. Which “Biochem EGFR % Inhibition (P.167)” value did it give?
The value was −26.6%.

O=C1Nc2ccc(I)cc2C1=Cc1ccoc1 [10739/B10] was tested. Which “Biochem EGFR % Inhibition (P.167)” value did it give?
Its value is −2.1%.

For O=C1Nc2ccc(I)cc2C1=Cc1ccc(OCc2ccccc2)cc1 [10739/B04], which “Biochem EGFR % Inhibition (P.167)” value is on record?
The value was 17.5%.

With O=C1Nc2ccc(I)cc2C1=Cc1ccc(O)cc1Cl [10739/B06] as the molecule, how does the “Biochem EGFR % Inhibition (P.167)” value read?
The value was 9.2%.

With O=C1Nc2c(Br)cc(Br)cc2C1=Cc1ccc(CO)o1 [10739/A11] as the molecule, how does the “Biochem EGFR % Inhibition (P.167)” value read?
Its value is −8.7%.

For CNS(=O)(=O)c1ccc2c(c1)C(=Cc1cccc(Oc3ccc(OC)cc3)c1)C(=O)N2 [10739/D08], which “Biochem EGFR % Inhibition (P.167)” value is on record?
The value was −16.8%.

With COc1ccc(C=C2C(=O)Nc3ccc(S(=O)(=O)N4CCOCC4)cc32)cc1C [10739/F02] as the molecule, how does the “Biochem EGFR % Inhibition (P.167)” value read?
Its value is −3.6%.

COc1ccccc1C=C1C(=O)Nc2c(Br)cc(Br)c(C)c21 [10738/H09] was tested. Which “Biochem EGFR % Inhibition (P.167)” value did it give?
Its value is 1.6%.

Which “Biochem EGFR % Inhibition (P.167)” value does the source give for CN(C)CCCOc1ccc(C=C2C(=O)Nc3ccc(S(=O)(=O)N4CCOCC4)cc32)cc1 [10739/F09] here?
The value was −19.6%.

With Cc1c(Br)ccc2c1C(=Cc1ccc(O)cc1Cl)C(=O)N2 [10739/C06] as the molecule, how does the “Biochem EGFR % Inhibition (P.167)” value read?
The value was −17.0%.

Which “Biochem EGFR % Inhibition (P.167)” value does the source give for O=C1Nc2ccc(CCCl)cc2C1=CC1COc2ccccc2O1 (stereo not shown) [10739/G05] here?
Its value is −23.0%.

With O=C1Nc2c(Br)cc(Br)cc2C1=Cc1ccc(O)cc1Cl [10739/A06] as the molecule, how does the “Biochem EGFR % Inhibition (P.167)” value read?
The value was −5.5%.

How did the “Biochem EGFR % Inhibition (P.167)” value turn out when O=C1Nc2ccc(S(=O)(=O)Nc3ccc(C(F)(F)F)cc3)cc2C1=Cc1ccc(OCc2ccccc2)cc1 [10739/E04] was run?
Its value is −35.5%.

For O=C1Nc2ccc(CCCl)cc2C1=Cc1cc(O)c(O)c(O)c1 [10739/G07], which “Biochem EGFR % Inhibition (P.167)” value is on record?
Its value is 10.0%.

O=C1Nc2c(Br)cc(Br)cc2C1=CC1COc2ccccc2O1 (stereo not shown) [10739/A05] was tested. Which “Biochem EGFR % Inhibition (P.167)” value did it give?
The value was 10.7%.

With Cc1c(Br)cc(Br)c2c1C(=Cc1ccc(OCc3ccccc3)cc1)C(=O)N2 [10739/H04] as the molecule, how does the “Biochem EGFR % Inhibition (P.167)” value read?
Its value is −21.9%.

How did the “Biochem EGFR % Inhibition (P.167)” value turn out when O=C1Nc2c(Br)cc(Br)cc2C1=Cc1cc(O)c(O)c(O)c1 [10739/A07] was run?
Its value is 65.6%.

For CNS(=O)(=O)c1ccc2c(c1)C(=Cc1ccc(OCCCN(C)C)cc1)C(=O)N2 [10739/D09], which “Biochem EGFR % Inhibition (P.167)” value is on record?
Its value is −15.1%.

For O=C1Nc2ccc(S(=O)(=O)Nc3ccc(C(F)(F)F)cc3)cc2C1=Cc1ccc(CO)o1 [10739/E11], which “Biochem EGFR % Inhibition (P.167)” value is on record?
The value was −23.4%.

Which “Biochem EGFR % Inhibition (P.167)” value does the source give for O=C1Nc2c(Br)cc(Br)cc2C1=Cc1ccc(OCc2ccccc2)cc1 [10739/A04] here?
The value was −6.3%.

Which “Biochem EGFR % Inhibition (P.167)” value does the source give for CNS(=O)(=O)c1ccc2c(c1)C(=Cc1ccc(O)cc1Cl)C(=O)N2 [10739/D06] here?
Its value is −19.8%.

Cc1c(Br)cc(Br)c2c1C(=Cc1cc(O)cc(O)c1)C(=O)N2 [10738/H07] was tested. Which “Biochem EGFR % Inhibition (P.167)” value did it give?
The value was −13.4%.

COc1ccc(Oc2cccc(C=C3C(=O)Nc4c(Br)cc(Br)c(C)c43)c2)cc1 [10739/H08] was tested. Which “Biochem EGFR % Inhibition (P.167)” value did it give?
Its value is −28.5%.

Cc1c(Br)ccc2c1C(=Cc1ccc(OCCCN(C)C)cc1)C(=O)N2 [10739/C09] was tested. Which “Biochem EGFR % Inhibition (P.167)” value did it give?
Its value is −2.7%.

For O=C1Nc2ccc(CCCl)cc2C1=Cc1ccc(OCc2ccccc2)cc1 [10739/G04], which “Biochem EGFR % Inhibition (P.167)” value is on record?
The value was −12.3%.

For COc1ccc(C=C2C(=O)Nc3c(Br)cc(Br)cc32)cc1C [10739/A02], which “Biochem EGFR % Inhibition (P.167)” value is on record?
The value was 0.0%.

For COc1ccc(Oc2cccc(C=C3C(=O)Nc4ccc(CCCl)cc43)c2)cc1 [10739/G08], which “Biochem EGFR % Inhibition (P.167)” value is on record?
The value was −18.5%.

CN(C)CCCOc1ccc(C=C2C(=O)Nc3ccc(I)cc32)cc1 [10739/B09] was tested. Which “Biochem EGFR % Inhibition (P.167)” value did it give?
The value was 11.9%.

For O=C1Nc2ccc(S(=O)(=O)N3CCOCC3)cc2C1=Cc1ccoc1 [10739/F10], which “Biochem EGFR % Inhibition (P.167)” value is on record?
Its value is −16.8%.

Which “Biochem EGFR % Inhibition (P.167)” value does the source give for Cc1c(Br)cc(Br)c2c1C(=Cc1ccc(O)cc1Cl)C(=O)N2 [10739/H06] here?
The value was −22.1%.

O=C1Nc2ccc(I)cc2C1=Cc1cc(O)c(O)c(O)c1 [10739/B07] was tested. Which “Biochem EGFR % Inhibition (P.167)” value did it give?
Its value is 59.4%.

How did the “Biochem EGFR % Inhibition (P.167)” value turn out when O=C1Nc2c(Br)cc(Br)cc2C1=Cc1cccc(OCc2ccccc2)c1 [10739/A03] was run?
The value was 5.1%.

Which “Biochem EGFR % Inhibition (P.167)” value does the source give for Cc1c(Br)cc(Br)c2c1C(=Cc1cccc(OCc3ccccc3)c1)C(=O)N2 [10739/H03] here?
The value was 10.0%.

For O=C1Nc2ccc(S(=O)(=O)Nc3ccc(C(F)(F)F)cc3)cc2C1=Cc1cc(O)c(O)c(O)c1 [10739/E07], which “Biochem EGFR % Inhibition (P.167)” value is on record?
Its value is 79.6%.

For O=C1Nc2ccc(S(=O)(=O)N3CCOCC3)cc2C1=CC1COc2ccccc2O1 (stereo not shown) [10739/F05], which “Biochem EGFR % Inhibition (P.167)” value is on record?
The value was −16.4%.

Which “Biochem EGFR % Inhibition (P.167)” value does the source give for CNS(=O)(=O)c1ccc2c(c1)C(=CC1COc3ccccc3O1)C(=O)N2 (stereo not shown) [10739/D05] here?
The value was −10.6%.

CN(C)CCCOc1ccc(C=C2C(=O)Nc3c(Br)cc(Br)cc32)cc1 [10739/A09] was tested. Which “Biochem EGFR % Inhibition (P.167)” value did it give?
Its value is 26.9%.

How did the “Biochem EGFR % Inhibition (P.167)” value turn out when CNS(=O)(=O)c1ccc2c(c1)C(=Cc1cccc(OCc3ccccc3)c1)C(=O)N2 [10739/D03] was run?
The value was 24.7%.

COc1ccc(Oc2cccc(C=C3C(=O)Nc4ccc(S(=O)(=O)N5CCOCC5)cc43)c2)cc1 [10739/F08] was tested. Which “Biochem EGFR % Inhibition (P.167)” value did it give?
The value was −19.1%.

COc1ccc(C=C2C(=O)Nc3ccc(CCCl)cc32)cc1C [10739/G02] was tested. Which “Biochem EGFR % Inhibition (P.167)” value did it give?
Its value is −5.1%.

Which “Biochem EGFR % Inhibition (P.167)” value does the source give for CCCOc1ccc(C=C2C(=O)Nc3c(Br)cc(Br)c(C)c32)cc1 [10738/H11] here?
The value was −13.4%.

For Cc1c(Br)ccc2c1C(=CC1COc3ccccc3O1)C(=O)N2 (stereo not shown) [10739/C05], which “Biochem EGFR % Inhibition (P.167)” value is on record?
The value was −1.7%.

Cc1c(Br)cc(Br)c2c1C(=Cc1ccc(C(C)C)cc1)C(=O)N2 [10738/H10] was tested. Which “Biochem EGFR % Inhibition (P.167)” value did it give?
The value was 11.4%.

For O=C1Nc2ccc(S(=O)(=O)N3CCOCC3)cc2C1=Cc1ccc(OCc2ccccc2)cc1 [10739/F04], which “Biochem EGFR % Inhibition (P.167)” value is on record?
The value was −7.0%.

For Cc1c(Br)cc(Br)c2c1C(=Cc1cc(O)c(O)c(O)c1)C(=O)N2 [10739/H07], which “Biochem EGFR % Inhibition (P.167)” value is on record?
Its value is 10.9%.

How did the “Biochem EGFR % Inhibition (P.167)” value turn out when Cc1c(Br)ccc2c1C(=Cc1cc(O)c(O)c(O)c1)C(=O)N2 [10739/C07] was run?
Its value is 34.7%.

COc1ccc(C=C2C(=O)Nc3c(Br)cc(Br)c(C)c32)cc1C [10739/H02] was tested. Which “Biochem EGFR % Inhibition (P.167)” value did it give?
Its value is −12.3%.

O=C1Nc2ccc(I)cc2C1=Cc1cccc(OCc2ccccc2)c1 [10739/B03] was tested. Which “Biochem EGFR % Inhibition (P.167)” value did it give?
Its value is 9.6%.

Which “Biochem EGFR % Inhibition (P.167)” value does the source give for COc1ccc(C=C2C(=O)Nc3ccc(I)cc32)cc1C [10739/B02] here?
The value was 18.1%.

CN(C)CCCOc1ccc(C=C2C(=O)Nc3ccc(CCCl)cc32)cc1 [10739/G09] was tested. Which “Biochem EGFR % Inhibition (P.167)” value did it give?
Its value is −39.8%.

Cc1c(Br)ccc2c1C(=Cc1ccc(CO)o1)C(=O)N2 [10739/C11] was tested. Which “Biochem EGFR % Inhibition (P.167)” value did it give?
The value was −17.0%.

Which “Biochem EGFR % Inhibition (P.167)” value does the source give for O=C1Nc2ccc(S(=O)(=O)Nc3ccc(C(F)(F)F)cc3)cc2C1=CC1COc2ccccc2O1 (stereo not shown) [10739/E05] here?
The value was −11.3%.
